Reference: publication PMC12736255, “Reinvestigating Pyrrol-2-One-Based Compounds: From Antimicrobial Agents to Promising Antitumor Candidates” (Pharmaceuticals, 2025)
Marks after values point to notes of the source that are not given here.

Experiments:
Test in all cases: NCI-60 single-dose screen
[1] = tested on: EKVX; type: cell-based, human; settings: 10^–5 M; for inhibition at 10 µM: Homo sapiens, read-out: GI (%)
In short: (§1)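 Testing used one compound level, 10^−5 M, on the NCI human cancer cell line panel (60 lines; leukemia through breast).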

[2] = tested on: NCI-H226; type: cell-based, human; settings: NCI-H226, 10^–5 M; for inhibition at 10 µM: Homo sapiens, read-out: GI (%)
In short: as §1

[3] = tested on: 786-0; type: cell-based; settings: Homo sapiens; 786-0, 10^–5 M; read-out: GI (%)
In short: as §1

[4] = tested on: A498; type: cell-based; settings: Homo sapiens; A498, 10^–5 M; read-out: GI (%)
In short: as §1

[5] = tested on: A549/ATCC; type: cell-based; settings: Homo sapiens, 10^–5 M, read-out: GI (%)
In short: as §1

[6] = tested on: CAKI-1; type: cell-based; settings: Homo sapiens; CAKI-1, 10^–5 M; read-out: GI (%)
In short: as §1

[7] = tested on: CCRF-CEM; type: cell-based; settings: Homo sapiens, 10^–5 M, read-out: GI (%)
In short: as §1

[8] = tested on: DU-145; type: cell-based; settings: Homo sapiens; DU-145, 10^–5 M; read-out: GI (%)
In short: as §1

[9] = tested on: HCC-2998; type: cell-based; settings: Homo sapiens; HCC-2998, 10^–5 M; read-out: GI (%)
In short: as §1

[10] = tested on: HCT-116; type: cell-based; settings: Homo sapiens; HCT-116, 10^–5 M; read-out: GI (%)
In short: as §1

[11] = tested on: HCT-15; type: cell-based; settings: Homo sapiens; HCT-15, 10^–5 M; read-out: GI (%)
In short: as §1

[12] = tested on: HL-60(TB); type: cell-based; settings: Homo sapiens, 10^–5 M, read-out: GI (%)
In short: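 Read-out is from the NCI-60 program: human tumor lines exposed to a single 10^−5 M dose of each compound.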

[13] = tested on: HS 578T; type: cell-based; settings: Homo sapiens, 10^–5 M, read-out: GI (%)
In short: as §1

[14] = tested on: IGROV1; type: cell-based; settings: Homo sapiens, IGROV-1; IGROV1, 10^–5 M; read-out: GI (%)
In short: as §1

[15] = tested on: K-562; type: cell-based; settings: Homo sapiens, K562; K-562, 10^–5 M; read-out: GI (%)
In short: as §1

[16] = tested on: LOX IMVI; type: cell-based; settings: Homo sapiens, 10^–5 M, read-out: GI (%)
In short: as §1

[17] = tested on: M14; type: cell-based; settings: Homo sapiens; M14, 10^–5 M; read-out: GI (%)
In short: as §1

[18] = tested on: MCF7; type: cell-based; settings: Homo sapiens; MCF7, 10^–5 M; read-out: GI (%)
In short: as §1

[19] = tested on: MDA-MB-231/ATCC; type: cell-based; settings: Homo sapiens, 10^–5 M, read-out: GI (%)
In short: as §1

[20] = tested on: MDA-MB-435; type: cell-based; settings: Homo sapiens; MDA-MB-435, 10^–5 M; read-out: GI (%)
In short: as §1

[21] = tested on: MOLT-4; type: cell-based; settings: Homo sapiens; MOLT-4, 10^–5 M; read-out: GI (%)
In short: as §1

[22] = tested on: NCI-H23; type: cell-based; settings: Homo sapiens; NCI-H23, 10^–5 M; read-out: GI (%)
In short: as §1

[23] = tested on: NCI-H322M; type: cell-based; settings: Homo sapiens, 10^–5 M, read-out: GI (%)
In short: as §1

[24] = tested on: NCI-H522; type: cell-based; settings: Homo sapiens; NCI-H522, 10^–5 M; read-out: GI (%)
In short: as §1

[25] = tested on: OVCAR-4; type: cell-based; settings: Homo sapiens; OVCAR-4, 10^–5 M; read-out: GI (%)
In short: as §1

[26] = tested on: OVCAR-5; type: cell-based; settings: Homo sapiens; OVCAR-5, 10^–5 M; read-out: GI (%)
In short: as §1

[27] = tested on: RPMI-8226; type: cell-based; settings: Homo sapiens; RPMI-8226, 10^–5 M; read-out: GI (%)
In short: as §1

[28] = tested on: SF-539; type: cell-based; settings: Homo sapiens; SF-539, 10^–5 M; read-out: GI (%)
In short: as §1

[29] = tested on: SK-MEL-28; type: cell-based; settings: Homo sapiens; SK-MEL-28, 10^–5 M; read-out: GI (%)
In short: as §1

[30] = tested on: SK-MEL-2; type: cell-based; settings: Homo sapiens; SK-MEL-2, 10^–5 M; read-out: GI (%)
In short: as §1

[31] = tested on: SK-OV-3; type: cell-based; settings: Homo sapiens; SK-OV-3, 10^–5 M; read-out: GI (%)
In short: as §1

[32] = tested on: SN12C; type: cell-based; settings: Homo sapiens, 10^–5 M, read-out: GI (%)
In short: as §1

[33] = tested on: SNB-19; type: cell-based; settings: Homo sapiens; SNB-19, 10^–5 M; read-out: GI (%)
In short: as §1

[34] = tested on: SNB-75; type: cell-based; settings: Homo sapiens; SNB-75, 10^–5 M; read-out: GI (%)
In short: as §1

[35] = tested on: SW-620; type: cell-based; settings: Homo sapiens; SW-620, 10^–5 M; read-out: GI (%)
In short: as §1

[36] = tested on: T-47D; type: cell-based; settings: Homo sapiens, T47D, 10^–5 M, read-out: GI (%)
In short: as §1

[37] = tested on: UACC-257; type: cell-based; settings: Homo sapiens; UACC-257, 10^–5 M; read-out: GI (%)
In short: as §1

[38] = tested on: UACC-62; type: cell-based; settings: Homo sapiens; UACC-62, 10^–5 M; read-out: GI (%)
In short: as §1

Row | SMILES | inhibition at 10 µM [1] | inhibition at 10 µM [2] | inhibition at 10 µM [3] | inhibition at 10 µM [4] | inhibition at 10 µM [5] | inhibition at 10 µM [6] | inhibition at 10 µM [7] | inhibition at 10 µM [8] | inhibition at 10 µM [9] | inhibition at 10 µM [10] | inhibition at 10 µM [11] | inhibition at 10 µM [12] | inhibition at 10 µM [13] | inhibition at 10 µM [14] | inhibition at 10 µM [15] | inhibition at 10 µM [16] | inhibition at 10 µM [17] | inhibition at 10 µM [18] | inhibition at 10 µM [19] | inhibition at 10 µM [20] | also measured
1 | O=C1C(Nc2ccc(I)cc2)=CC(c2ccc(C(F)(F)F)cc2)N1c1ccc(I)cc1 (stereo not drawn) [3e] | 100% | 100% | 76% | 100% | 30% | 91% | 100% | 28% | 0% | 58% | 12% | 51% | 100% | 12% | 16% | 7% | 64% | 44% | 62% | 0% | GI (%) [1]: 100 ^d %; GI (%) [2]: 100 ^e %; inhibition at 10 µM [21]: 75%; inhibition at 10 µM [22]: 11%; inhibition at 10 µM [23]: 97%; inhibition at 10 µM [24]: 53%; inhibition at 10 µM [25]: 100%; inhibition at 10 µM [26]: 18%; inhibition at 10 µM [27]: 60%; inhibition at 10 µM [28]: 37%; inhibition at 10 µM [29]: 31%; inhibition at 10 µM [30]: 100%; inhibition at 10 µM [31]: 50%; inhibition at 10 µM [32]: 60%; inhibition at 10 µM [33]: 71%; inhibition at 10 µM [34]: 100%; inhibition at 10 µM [35]: 47%; inhibition at 10 µM [36]: 100%; inhibition at 10 µM [37]: 100%; inhibition at 10 µM [38]: 12%
2 | COc1ccc(C2C=C(Nc3ccc(I)cc3)C(=O)N2c2ccc(I)cc2)cc1OC (stereo not drawn) [3j] | 40% | 0% | 0% | 0% | 5% | 5% | 0% | 0% | 0% | 0% | 0% | 0% | 0% | 0% | 0% | 8% | 0% | 6% | 0% | 0% | inhibition at 10 µM [21]: 0%; inhibition at 10 µM [22]: 8%; inhibition at 10 µM [23]: 0%; inhibition at 10 µM [24]: 0%; inhibition at 10 µM [25]: 0%; inhibition at 10 µM [26]: 0%; inhibition at 10 µM [27]: 7%; inhibition at 10 µM [28]: 28%; inhibition at 10 µM [29]: 0%; inhibition at 10 µM [30]: 0%; inhibition at 10 µM [31]: 0%; inhibition at 10 µM [32]: 0%; inhibition at 10 µM [33]: 0%; inhibition at 10 µM [34]: 0%; inhibition at 10 µM [35]: 0%; inhibition at 10 µM [36]: 6%; inhibition at 10 µM [37]: 0%; inhibition at 10 µM [38]: 0%
